Results reported in article PMC10301922, “Anti-Oxidant, Anti-Mutagenic Activity and Safety Evaluation of Antrocin” (Toxics, 2023).

System: Sprague Dawley rats
Assay: 28-day oral toxicity test: histopathological examination
Conditions: male rats; for Bone marrow, femur: Hypocellularity; Score value / Bone marrow, sternum: Hypocellularity; Score value / Bone, femur: Hypertrophy, epiphysis; Score value / Spleen: Atrophy, red pulp; Score value: grades 1-5

C=C1CC[C@H]2C(C)(C)CCC[C@@]23C(=O)OC[C@@H]13 [Antrocin, (-)-Antrocin]
Harderian gland: histopathological lesions (7.5 mg/kg oral 28 d): - | Heart: Infiltration, mononuclear cell, focal, minimal to slight; incidence (7.5 mg/kg oral 28 d): 1/5 | Intestine, large, Caecum: histopathological lesions (7.5 mg/kg oral 28 d): - | Intestine, large, Colon: histopathological lesions (7.5 mg/kg oral 28 d): - | Intestine, large, Rectum: histopathological lesions (7.5 mg/kg oral 28 d): - | Intestine, small, Duodenum: histopathological lesions (7.5 mg/kg oral 28 d): - | Intestine, small, Ileum: histopathological lesions (7.5 mg/kg oral 28 d): - | Intestine, small, Jejunum: histopathological lesions (7.5 mg/kg oral 28 d): - | Kidney: Cast, tubule, focal, minimal; incidence (7.5 mg/kg oral 28 d): - | Kidney: Cyst, tubule, focal, slight; incidence (7.5 mg/kg oral 28 d): 1/5 | Kidney: Infarct, tubule, focal, slight; incidence (7.5 mg/kg oral 28 d): 2/5 | Liver: histopathological lesions (7.5 mg/kg oral 28 d): - | Lung: histopathological lesions (7.5 mg/kg oral 28 d): - | Lymph node, Cervical: histopathological lesions (7.5 mg/kg oral 28 d): - | Lymph node, Mesenteric: histopathological lesions (7.5 mg/kg oral 28 d): - | Mammary gland: histopathological lesions (7.5 mg/kg oral 28 d): - | Optic nerve: histopathological lesions (7.5 mg/kg oral 28 d): - | Pancreas: histopathological lesions (7.5 mg/kg oral 28 d): - | Parathyroid gland: histopathological lesions (7.5 mg/kg oral 28 d): - | Pituitary: histopathological lesions (7.5 mg/kg oral 28 d): - | Salivary gland, Mandibular lobe: histopathological lesions (7.5 mg/kg oral 28 d): - | Salivary gland, Sublingual lobe: histopathological lesions (7.5 mg/kg oral 28 d): - | Sciatic nerve: histopathological lesions (7.5 mg/kg oral 28 d): - | Seminal vesicle: histopathological lesions (7.5 mg/kg oral 28 d): - | Skeletal muscle: histopathological lesions (7.5 mg/kg oral 28 d): - | Skin: histopathological lesions (7.5 mg/kg oral 28 d): - | Spinal cord: histopathological lesions (7.5 mg/kg oral 28 d): - | Spleen: Atrophy, red pulp, diffuse, slight to moderate; incidence (7.5 mg/kg oral 28 d): 0/5 | Stomach: histopathological lesions (7.5 mg/kg oral 28 d): - | Testis: histopathological lesions (7.5 mg/kg oral 28 d): - | Thymus: histopathological lesions (7.5 mg/kg oral 28 d): - | Thyroid gland: histopathological lesions (7.5 mg/kg oral 28 d): - | Tongue: histopathological lesions (7.5 mg/kg oral 28 d): - | Trachea: histopathological lesions (7.5 mg/kg oral 28 d): - | Urinary bladder: histopathological lesions (7.5 mg/kg oral 28 d): - | Bone marrow, femur: Hypocellularity; Score value (7.5 mg/kg oral 28 d): 0 | Bone marrow, sternum: Hypocellularity; Score value (7.5 mg/kg oral 28 d): 0 | Bone, femur: Hypertrophy, epiphysis; Score value (7.5 mg/kg oral 28 d): 0 | Spleen: Atrophy, red pulp; Score value (7.5 mg/kg oral 28 d): 0 | Adrenal gland: Congestion, cortex, multifocal, slight; incidence (37.5 mg/kg oral 28 d): - | Aorta: histopathological lesions (37.5 mg/kg oral 28 d): - | Bone marrow, femur: Hypocellularity, diffuse, slight to moderate/severe; incidence (37.5 mg/kg oral 28 d): 0/5 | Bone marrow, sternum: Hypocellularity, diffuse, moderate; incidence (37.5 mg/kg oral 28 d): 0/5 | Bone, femur: Hypertrophy, epiphysis, diffuse, slight to moderate/severe; incidence (37.5 mg/kg oral 28 d): 0/5 | Coagulative gland: histopathological lesions (37.5 mg/kg oral 28 d): - | Epididymis: Granuloma, spermatic, focal, moderate; incidence (37.5 mg/kg oral 28 d): - | Esophagus: histopathological lesions (37.5 mg/kg oral 28 d): - | Eyes: histopathological lesions (37.5 mg/kg oral 28 d): - | Harderian gland: histopathological lesions (37.5 mg/kg oral 28 d): - | Heart: Infiltration, mononuclear cell, focal, minimal to slight; incidence (37.5 mg/kg oral 28 d): 1/5 | Intestine, large, Caecum: histopathological lesions (37.5 mg/kg oral 28 d): - | Intestine, large, Colon: histopathological lesions (37.5 mg/kg oral 28 d): - | Intestine, large, Rectum: histopathological lesions (37.5 mg/kg oral 28 d): - | Intestine, small, Duodenum: histopathological lesions (37.5 mg/kg oral 28 d): - | Intestine, small, Ileum: histopathological lesions (37.5 mg/kg oral 28 d): - | Intestine, small, Jejunum: histopathological lesions (37.5 mg/kg oral 28 d): - | Kidney: Cast, tubule, focal, minimal; incidence (37.5 mg/kg oral 28 d): - | Kidney: Infarct, tubule, focal, slight; incidence (37.5 mg/kg oral 28 d): 1/5 | Liver: histopathological lesions (37.5 mg/kg oral 28 d): - | Lung: histopathological lesions (37.5 mg/kg oral 28 d): - | Lymph node, Cervical: histopathological lesions (37.5 mg/kg oral 28 d): - | Lymph node, Mesenteric: histopathological lesions (37.5 mg/kg oral 28 d): - | Mammary gland: histopathological lesions (37.5 mg/kg oral 28 d): - | Optic nerve: histopathological lesions (37.5 mg/kg oral 28 d): - | Pancreas: histopathological lesions (37.5 mg/kg oral 28 d): - | Parathyroid gland: histopathological lesions (37.5 mg/kg oral 28 d): - | Pituitary: histopathological lesions (37.5 mg/kg oral 28 d): - | Prostate gland: Infiltration, mononuclear cell, focal, minimal to slight; incidence (37.5 mg/kg oral 28 d): 2/5 | Salivary gland, Mandibular lobe: histopathological lesions (37.5 mg/kg oral 28 d): - | Salivary gland, Sublingual lobe: histopathological lesions (37.5 mg/kg oral 28 d): - | Sciatic nerve: histopathological lesions (37.5 mg/kg oral 28 d): - | Seminal vesicle: histopathological lesions (37.5 mg/kg oral 28 d): - | Skeletal muscle: histopathological lesions (37.5 mg/kg oral 28 d): - | Skin: histopathological lesions (37.5 mg/kg oral 28 d): - | Spinal cord: histopathological lesions (37.5 mg/kg oral 28 d): - | Spleen: Atrophy, red pulp, diffuse, slight to moderate; incidence (37.5 mg/kg oral 28 d): 0/5 | Stomach: histopathological lesions (37.5 mg/kg oral 28 d): - | Testis: histopathological lesions (37.5 mg/kg oral 28 d): - | Thymus: histopathological lesions (37.5 mg/kg oral 28 d): - | Thyroid gland: histopathological lesions (37.5 mg/kg oral 28 d): - | Tongue: histopathological lesions (37.5 mg/kg oral 28 d): - | Trachea: histopathological lesions (37.5 mg/kg oral 28 d): - | Urinary bladder: histopathological lesions (37.5 mg/kg oral 28 d): - | Bone marrow, femur: Hypocellularity; Score value (37.5 mg/kg oral 28 d): 0 | Bone marrow, sternum: Hypocellularity; Score value (37.5 mg/kg oral 28 d): 0 | Bone, femur: Hypertrophy, epiphysis; Score value (37.5 mg/kg oral 28 d): 0 | Spleen: Atrophy, red pulp; Score value (37.5 mg/kg oral 28 d): 0
